Source: ChEMBL document CHEMBL4477270, “Design, synthesis, and protein methyltransferase activity of a unique set of constrained amine containing compounds” (Bioorg Med Chem Lett, 2016)

Key:
[1] = biological target: Histone-lysine N-methyltransferase ASH1L (Homo sapiens) (UniProt Q9NR48); assay: Inhibition of ASH1L (unknown origin) using biotin-labeled histone substrate assessed as residual activity at 50 uM in presence of [3H-Me]SAM by scintillation proximity assay relative to control
[2] = biological target: Histone-lysine N-methyltransferase SETDB1 (Homo sapiens) (UniProt Q15047); assay: Inhibition of SETDB1 (unknown origin) using biotin-labeled histone substrate assessed as residual activity at 50 uM in presence of [3H-Me]SAM by scintillation proximity assay relative to control
[3] = biological target: T1, N-lysine methyltransferase KMT5A (Homo sapiens) (UniProt Q9NQR1); assay: Inhibition of SETD8 (unknown origin) using biotin-labeled histone H4 (1 to 24 residues) as substrate assessed as residual activity at 50 uM in presence of [3H-Me]SAM by scintillation proximity assay relative to control
T1 sequence (whole entry): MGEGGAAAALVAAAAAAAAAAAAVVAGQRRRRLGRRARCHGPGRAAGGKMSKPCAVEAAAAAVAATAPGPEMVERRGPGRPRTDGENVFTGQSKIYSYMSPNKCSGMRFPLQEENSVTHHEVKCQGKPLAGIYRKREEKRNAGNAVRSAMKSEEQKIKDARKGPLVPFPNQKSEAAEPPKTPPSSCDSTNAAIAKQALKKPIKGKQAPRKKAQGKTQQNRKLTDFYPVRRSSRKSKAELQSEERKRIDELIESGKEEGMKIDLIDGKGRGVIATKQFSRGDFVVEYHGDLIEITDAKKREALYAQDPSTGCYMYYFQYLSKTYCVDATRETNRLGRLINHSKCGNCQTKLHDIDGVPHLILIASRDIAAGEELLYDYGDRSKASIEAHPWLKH

[4] = biological target: T2, Histone-lysine N-methyltransferase SUV39H1 (Homo sapiens) (UniProt O43463); assay: Inhibition of SUV39H1 (unknown origin) using biotin-labeled histone substrate assessed as residual activity at 50 uM in presence of [3H-Me]SAM by scintillation proximity assay relative to control
T2 sequence (whole entry): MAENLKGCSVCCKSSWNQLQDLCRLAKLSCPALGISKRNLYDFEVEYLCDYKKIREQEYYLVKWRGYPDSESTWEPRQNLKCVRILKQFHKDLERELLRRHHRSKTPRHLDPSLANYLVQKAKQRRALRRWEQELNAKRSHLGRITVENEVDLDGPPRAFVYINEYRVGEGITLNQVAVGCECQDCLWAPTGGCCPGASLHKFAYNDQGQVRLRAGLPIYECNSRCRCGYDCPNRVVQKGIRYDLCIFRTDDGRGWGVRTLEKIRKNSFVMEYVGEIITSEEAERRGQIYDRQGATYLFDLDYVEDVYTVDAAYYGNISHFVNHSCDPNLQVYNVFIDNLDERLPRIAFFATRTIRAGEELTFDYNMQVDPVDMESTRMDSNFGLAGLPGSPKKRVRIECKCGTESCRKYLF

[5] = biological target: Protein arginine N-methyltransferase 8 (Homo sapiens) (UniProt Q9NR22); assay: Inhibition of PRMT8 (unknown origin) using biotin-labeled histone substrate assessed as residual activity at 50 uM in presence of [3H-Me]SAM by scintillation proximity assay relative to control
Sequence of Protein arginine N-methyltransferase 8 (Homo sapiens) (Q9NR22 2-394 limits assumed): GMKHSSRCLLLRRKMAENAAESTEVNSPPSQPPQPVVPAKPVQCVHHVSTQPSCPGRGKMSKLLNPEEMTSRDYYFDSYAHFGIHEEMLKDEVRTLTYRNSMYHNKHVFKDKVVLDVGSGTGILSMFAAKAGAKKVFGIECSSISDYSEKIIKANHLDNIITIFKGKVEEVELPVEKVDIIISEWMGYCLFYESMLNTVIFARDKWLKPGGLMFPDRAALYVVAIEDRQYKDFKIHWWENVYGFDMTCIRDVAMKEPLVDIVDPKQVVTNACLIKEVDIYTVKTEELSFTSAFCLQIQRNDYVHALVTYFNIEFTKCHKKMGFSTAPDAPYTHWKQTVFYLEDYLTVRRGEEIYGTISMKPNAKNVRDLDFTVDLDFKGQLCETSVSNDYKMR

[6] = biological target: Histone-lysine N-methyltransferase PRDM9 (Homo sapiens) (UniProt Q9NQV7); assay: Inhibition of PRDM9 (unknown origin) using biotin-labeled histone substrate assessed as residual activity at 50 uM in presence of [3H-Me]SAM by scintillation proximity assay relative to control
[7] = biological target: T3, Histone-lysine N-methyltransferase NSD2 (Homo sapiens) (UniProt O96028); assay: Inhibition of NSD2 (unknown origin) using biotin-labeled histone substrate assessed as residual activity at 50 uM in presence of [3H-Me]SAM by scintillation proximity assay relative to control
T3 sequence (whole entry): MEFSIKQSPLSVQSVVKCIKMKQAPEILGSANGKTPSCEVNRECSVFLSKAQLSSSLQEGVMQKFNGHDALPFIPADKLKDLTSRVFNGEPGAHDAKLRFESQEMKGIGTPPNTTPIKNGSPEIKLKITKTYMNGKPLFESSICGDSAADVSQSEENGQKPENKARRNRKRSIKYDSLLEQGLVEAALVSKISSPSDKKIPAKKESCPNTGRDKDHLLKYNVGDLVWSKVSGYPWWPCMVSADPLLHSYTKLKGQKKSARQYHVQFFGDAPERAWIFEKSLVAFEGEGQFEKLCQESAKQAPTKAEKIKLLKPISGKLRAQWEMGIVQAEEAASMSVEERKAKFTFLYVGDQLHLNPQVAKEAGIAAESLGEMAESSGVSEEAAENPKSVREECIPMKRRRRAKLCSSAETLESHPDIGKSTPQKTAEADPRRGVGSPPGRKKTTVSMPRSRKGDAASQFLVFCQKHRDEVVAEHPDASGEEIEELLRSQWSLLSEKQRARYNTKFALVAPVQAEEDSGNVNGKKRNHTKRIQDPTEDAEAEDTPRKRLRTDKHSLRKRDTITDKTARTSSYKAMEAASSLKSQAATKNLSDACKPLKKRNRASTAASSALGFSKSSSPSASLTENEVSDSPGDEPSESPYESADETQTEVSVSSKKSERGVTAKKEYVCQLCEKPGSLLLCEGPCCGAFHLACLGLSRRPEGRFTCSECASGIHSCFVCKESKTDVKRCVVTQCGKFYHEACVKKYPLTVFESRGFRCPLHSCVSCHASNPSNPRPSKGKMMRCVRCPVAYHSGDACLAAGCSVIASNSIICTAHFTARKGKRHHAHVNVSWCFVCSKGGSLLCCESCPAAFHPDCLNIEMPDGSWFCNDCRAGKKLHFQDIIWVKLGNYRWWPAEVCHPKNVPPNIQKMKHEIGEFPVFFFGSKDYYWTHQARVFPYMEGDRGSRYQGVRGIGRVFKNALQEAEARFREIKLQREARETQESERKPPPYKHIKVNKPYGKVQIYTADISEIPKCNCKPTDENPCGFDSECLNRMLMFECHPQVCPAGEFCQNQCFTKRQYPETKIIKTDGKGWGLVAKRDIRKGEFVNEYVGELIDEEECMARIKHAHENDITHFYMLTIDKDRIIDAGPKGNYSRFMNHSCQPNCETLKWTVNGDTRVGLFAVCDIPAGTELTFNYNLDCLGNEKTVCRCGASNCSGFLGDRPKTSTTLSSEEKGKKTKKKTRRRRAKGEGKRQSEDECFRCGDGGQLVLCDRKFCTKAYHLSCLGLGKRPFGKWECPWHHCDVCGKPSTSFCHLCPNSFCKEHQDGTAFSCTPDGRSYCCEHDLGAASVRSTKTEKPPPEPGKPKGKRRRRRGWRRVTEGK

[8] = biological target: Histone-lysine N-methyltransferase 2A (Homo sapiens) (UniProt Q03164); assay: Inhibition of MLL1 (unknown origin) using biotin-labeled histone substrate assessed as residual activity at 50 uM in presence of [3H-Me]SAM by scintillation proximity assay relative to control
Sequence of Histone-lysine N-methyltransferase 2A (Homo sapiens) (Q03164 1-2718 limits assumed): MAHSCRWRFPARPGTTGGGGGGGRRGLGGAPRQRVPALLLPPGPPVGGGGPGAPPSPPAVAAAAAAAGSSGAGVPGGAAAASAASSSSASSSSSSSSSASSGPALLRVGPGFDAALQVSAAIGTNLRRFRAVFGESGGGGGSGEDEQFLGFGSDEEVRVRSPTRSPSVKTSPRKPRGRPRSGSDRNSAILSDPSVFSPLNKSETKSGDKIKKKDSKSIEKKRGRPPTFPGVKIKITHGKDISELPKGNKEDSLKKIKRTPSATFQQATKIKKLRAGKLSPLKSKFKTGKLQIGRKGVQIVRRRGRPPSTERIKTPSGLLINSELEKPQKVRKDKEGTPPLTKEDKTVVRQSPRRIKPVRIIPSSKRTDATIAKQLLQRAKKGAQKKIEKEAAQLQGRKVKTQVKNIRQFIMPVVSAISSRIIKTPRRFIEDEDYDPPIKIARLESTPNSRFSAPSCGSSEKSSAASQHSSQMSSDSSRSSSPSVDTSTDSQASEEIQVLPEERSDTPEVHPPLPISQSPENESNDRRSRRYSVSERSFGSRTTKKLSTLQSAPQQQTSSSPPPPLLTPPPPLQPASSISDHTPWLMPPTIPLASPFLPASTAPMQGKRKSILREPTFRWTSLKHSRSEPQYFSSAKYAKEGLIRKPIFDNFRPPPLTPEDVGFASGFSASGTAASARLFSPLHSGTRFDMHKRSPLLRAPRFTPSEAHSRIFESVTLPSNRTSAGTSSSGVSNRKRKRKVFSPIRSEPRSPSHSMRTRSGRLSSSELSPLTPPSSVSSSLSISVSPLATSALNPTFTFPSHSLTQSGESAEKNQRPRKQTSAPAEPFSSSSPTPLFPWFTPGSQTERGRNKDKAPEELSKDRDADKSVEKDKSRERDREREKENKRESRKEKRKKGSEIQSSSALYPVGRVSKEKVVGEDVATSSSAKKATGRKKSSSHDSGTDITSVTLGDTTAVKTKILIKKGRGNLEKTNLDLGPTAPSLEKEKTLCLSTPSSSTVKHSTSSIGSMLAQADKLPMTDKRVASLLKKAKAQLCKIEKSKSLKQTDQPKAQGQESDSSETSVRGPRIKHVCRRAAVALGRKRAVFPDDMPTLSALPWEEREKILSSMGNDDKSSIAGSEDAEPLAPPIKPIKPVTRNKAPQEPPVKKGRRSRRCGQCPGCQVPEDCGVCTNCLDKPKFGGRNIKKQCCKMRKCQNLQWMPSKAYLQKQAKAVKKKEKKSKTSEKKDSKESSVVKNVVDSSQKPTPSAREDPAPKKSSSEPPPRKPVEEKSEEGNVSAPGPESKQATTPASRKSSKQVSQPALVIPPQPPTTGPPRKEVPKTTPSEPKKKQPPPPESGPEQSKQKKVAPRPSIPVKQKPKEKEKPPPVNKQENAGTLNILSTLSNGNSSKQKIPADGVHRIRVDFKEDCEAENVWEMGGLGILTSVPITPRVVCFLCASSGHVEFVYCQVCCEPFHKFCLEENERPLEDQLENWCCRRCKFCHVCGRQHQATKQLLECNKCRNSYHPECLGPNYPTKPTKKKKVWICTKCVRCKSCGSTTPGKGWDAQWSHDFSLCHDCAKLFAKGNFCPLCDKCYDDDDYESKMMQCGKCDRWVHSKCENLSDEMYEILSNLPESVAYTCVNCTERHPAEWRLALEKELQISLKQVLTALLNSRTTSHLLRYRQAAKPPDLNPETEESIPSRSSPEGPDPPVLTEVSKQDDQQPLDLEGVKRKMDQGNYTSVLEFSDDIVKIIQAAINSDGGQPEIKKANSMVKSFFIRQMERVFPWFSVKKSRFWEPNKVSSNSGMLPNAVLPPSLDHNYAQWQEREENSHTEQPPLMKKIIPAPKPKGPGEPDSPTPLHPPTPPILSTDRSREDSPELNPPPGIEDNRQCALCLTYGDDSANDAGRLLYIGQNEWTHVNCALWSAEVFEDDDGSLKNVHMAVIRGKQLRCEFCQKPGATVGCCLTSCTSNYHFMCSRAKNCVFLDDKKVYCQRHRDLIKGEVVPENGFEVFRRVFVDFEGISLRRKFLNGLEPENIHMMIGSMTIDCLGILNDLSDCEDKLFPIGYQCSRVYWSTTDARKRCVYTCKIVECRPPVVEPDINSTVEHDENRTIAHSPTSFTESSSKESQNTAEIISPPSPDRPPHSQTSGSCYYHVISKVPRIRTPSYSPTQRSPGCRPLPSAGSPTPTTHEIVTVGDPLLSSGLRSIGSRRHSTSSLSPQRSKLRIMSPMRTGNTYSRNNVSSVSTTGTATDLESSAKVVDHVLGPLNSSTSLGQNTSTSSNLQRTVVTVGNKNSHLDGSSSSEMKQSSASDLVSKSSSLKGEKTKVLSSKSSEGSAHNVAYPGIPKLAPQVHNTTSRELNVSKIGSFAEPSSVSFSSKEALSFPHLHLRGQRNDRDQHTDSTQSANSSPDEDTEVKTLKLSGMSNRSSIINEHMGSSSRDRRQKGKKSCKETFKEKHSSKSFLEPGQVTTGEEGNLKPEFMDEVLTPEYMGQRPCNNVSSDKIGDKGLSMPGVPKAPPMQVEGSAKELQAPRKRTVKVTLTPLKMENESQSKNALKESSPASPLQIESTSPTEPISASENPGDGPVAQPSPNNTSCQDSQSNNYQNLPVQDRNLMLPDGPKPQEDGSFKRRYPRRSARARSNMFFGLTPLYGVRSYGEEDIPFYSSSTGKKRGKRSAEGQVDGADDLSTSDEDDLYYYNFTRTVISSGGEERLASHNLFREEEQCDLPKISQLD
Sequence of Histone-lysine N-methyltransferase 2A (Homo sapiens) (Q03164 2719-3969 limits assumed): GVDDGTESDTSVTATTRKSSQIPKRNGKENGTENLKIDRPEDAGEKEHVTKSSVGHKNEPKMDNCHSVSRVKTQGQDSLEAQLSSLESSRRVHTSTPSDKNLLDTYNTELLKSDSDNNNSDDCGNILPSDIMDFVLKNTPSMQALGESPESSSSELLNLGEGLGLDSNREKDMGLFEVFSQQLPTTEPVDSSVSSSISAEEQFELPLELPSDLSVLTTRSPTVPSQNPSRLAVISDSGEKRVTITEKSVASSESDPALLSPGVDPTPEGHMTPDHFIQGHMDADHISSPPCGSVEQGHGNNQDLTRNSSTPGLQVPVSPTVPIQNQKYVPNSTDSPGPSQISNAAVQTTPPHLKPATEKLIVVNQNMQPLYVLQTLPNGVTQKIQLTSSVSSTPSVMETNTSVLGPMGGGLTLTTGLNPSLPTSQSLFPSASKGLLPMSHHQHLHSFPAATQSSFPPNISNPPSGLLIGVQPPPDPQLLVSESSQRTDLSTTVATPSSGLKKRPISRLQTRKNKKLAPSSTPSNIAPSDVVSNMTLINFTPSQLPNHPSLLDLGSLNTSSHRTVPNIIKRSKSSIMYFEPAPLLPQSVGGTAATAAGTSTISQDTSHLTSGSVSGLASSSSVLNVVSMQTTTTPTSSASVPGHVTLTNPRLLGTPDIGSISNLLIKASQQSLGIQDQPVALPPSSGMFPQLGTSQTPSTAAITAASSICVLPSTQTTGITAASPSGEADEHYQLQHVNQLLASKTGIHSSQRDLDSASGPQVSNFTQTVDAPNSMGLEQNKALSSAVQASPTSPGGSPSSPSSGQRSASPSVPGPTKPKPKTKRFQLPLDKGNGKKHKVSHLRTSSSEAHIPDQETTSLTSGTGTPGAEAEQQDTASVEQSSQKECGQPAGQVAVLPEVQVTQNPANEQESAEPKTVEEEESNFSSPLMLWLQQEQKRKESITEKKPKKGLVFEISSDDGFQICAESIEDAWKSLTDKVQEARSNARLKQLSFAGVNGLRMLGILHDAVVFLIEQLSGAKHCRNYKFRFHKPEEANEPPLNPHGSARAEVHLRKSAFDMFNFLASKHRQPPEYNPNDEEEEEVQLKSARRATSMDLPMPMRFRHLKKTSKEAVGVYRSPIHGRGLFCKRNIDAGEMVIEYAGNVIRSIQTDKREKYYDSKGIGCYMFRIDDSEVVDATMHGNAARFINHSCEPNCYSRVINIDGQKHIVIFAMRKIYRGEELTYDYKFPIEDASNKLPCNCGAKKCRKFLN

SMILES: CN1CCCCC12CCCN(C(=O)c1cccc(Br)c1)C2 (centres undefined)
- Activity [1]: 94%
- Activity [2]: 105%
- Activity [3]: 73%
- Activity [4]: 102%
- Activity [5]: 100%
- Activity [6]: 111%
- Activity [7]: 101%
- Activity [8]: 109%

SMILES: CN1CCC2(CCCN2C(=O)c2cccc(Br)c2)CC1
- Activity [1]: 93%
- Activity [2]: 94%
- Activity [3]: 91%
- Activity [4]: 101%
- Activity [5]: 108%
- Activity [6]: 98%
- Activity [7]: 99%
- Activity [8]: 105%

SMILES: CN1CCCC2(CCCN2C(=O)c2cccc(Br)c2)C1 (centres undefined)
- Activity [1]: 99%
- Activity [2]: 109%
- Activity [3]: 106%
- Activity [4]: 91%
- Activity [5]: 107%
- Activity [6]: 94%
- Activity [7]: 105%
- Activity [8]: 99%
